How the values were obtained:
[1] = test system: acoustic startle reactivity; assay: Acoustic startle reactivity on day ten of chronic dosing; conditions: day ten of b.i.d. oral dosing
Protocol: The effects of chronic dosing of nepicastat were examined. Between three and thirteen days prior to the first dosing day the rats were placed inside the startle apparatus and after a five minute acclimation period they were presented with a 118 dB noise burst on average once a minute (a variable inter-trial interval ranging between 30 and 90 seconds will be used) for 20 minutes. The startle responses were measured and a mean for the last twenty startle response was calculated for each rat.
Acoustic startle reactivity (a series of muscle contractions elicited by an intense burst of noise with a rapid onset), and pre-pulse inhibition (sensorimotor gating measured by analyzing any decrease in startle reactivity which occurs when a startling stimulus is immediately preceded by a non startling stimulus) were both measured in eight SR-Lab (San Diego Instruments, San Diego, Calif.) test stations. The rats were placed individually in a Plexiglas cylinder (10 cm diameter) which was housed in a ventilated sound-attenuating enclosure. Acoustic noise bursts (a broad band noise with a rise time and fall time of 1 msec) were presented via a speaker mounted 30 cm above the animal. Also, these speakers produced a 68 dB level of background noise throughout all test sessions. […] A decibel meter was used to calibrate the speakers in each of the eight test station to ±1% of the mean. Additionally, a SR-Lab calibrating instrument was used to calibrate each of the eight startle detection apparatuses to ±2% of the mean. Startle reactivity and pre-pulse inhibition tests were run concurrently immediately alter the motor activity test (about 4 hours and 40 minutes after the morning daily injection of nepicastat, and SKF-102698, and 10 minutes after a supplemental administration of clonidine and d-amphetamine on dosing day ten).

blood pressure = assay: Blood pressure in conscious, restrained normotensive rats; format: in vivo, Wistar-Kyoto rats; conditions: 10 mg/kg, 4 hours after dosing
[2] = test system: tissue norepinephrine and dopamine levels; assay: Tissue catecholamines in beagle dogs, 10, 30, 60 mg/kg/day for 4.5 days; format: in vivo
Protocol: This study was performed to determine the dopamine and norepinephrine concentrations in kidney medulla and kidney cortex from dogs dosed with nepicastat. Adult male beagle dogs were randomly assigned to four groups of 8 dogs per group and dosed by oral administration with nepicastat. Nepicastat was delivered in doses of 5, 15 and 30 mg/kg placed in single capsules. Vehicle was an empty capsule. Each dog received 2 doses daily, morning and afternoon (8-10 hours apart) for four days. On the fifth day, each dog received a single dose in the morning and the dogs were euthanized six hours after the last dose. Samples of kidney medulla and kidney cortex were rapidly harvested, weighed, placed in cold 0.4 M perchloric acid, frozen in liquid nitrogen and stored at −70° C.
To quantitate concentrations of norepinephrine (NE) and dopamine (D), each tissue was homogenized by brief sonication in 0.4 M perchloric acid. After sonication, the homogenates were centrifuged at 13,000 rpm in a microfuge for 30 minutes at 4° C. An aliquot of each supernatant was removed and spiked with 3,4-dihydroxybenzylamine (DHBA) as internal standard. The extract from each sample was subjected to HPLC separation using electrochemical detection. The method has a quantitation limit of 2.0 ng/mL and a linear range of 2.0 ng/mL to 400 ng/mL for each analyte.
Nepicastat was weighed and put into capsules (size 13—Torpac; East Hanover, N.J.) to yield doses of 5, 15, and 30 mg/kg per capsule (given b.i.d. to yield doses of 10, 30 and 60 mg/kg/day). The initial dog weight was used to determine the dose for each animal. Dogs receiving 0 mg/kg/day received empty capsules (placebo). All doses of nepicastat were administered as free base equivalents.
Thirty-two male beagle dogs, weighing 10-12 kg, were randomly assigned to one of the following 4 treatment groups (n=8 per group): nepicastat at 0 mg/kg/day (placebo), 10 mg/kg/day (5 mg/kg b.i.d.), 30 mg/kg (15 mg/kg b.i.d.), or 60 mg/kg/day (30 mg/kg b.i.d.). Dog numbers 1-16 were assigned as dose group A and dog numbers 17-32 as dose group B. The terminal surgery for tissue harvest was performed over 2 days with 16 animals studied per day. Two or 3 days before the first compound administration each dog was weighed and skin regions overlying both cephalic, saphenous and jugular veins were shaved. Dosing consisted of oral administration of one capsule with the second given 8-10 hr later. Dogs were dosed as scheduled on days 1-3. On day 4, prior to the AM dose, 3 ml of blood were obtained from a jugular vein for determination of baseline plasma compound levels. The dog was then administered the AM dose, and at 1, 2, 4 and 8 hr following the dose additional 3 ml blood samples were collected for determination of plasma compound levels. Blood samples were put into tubes containing heparin, centrifuged at 4° C. and stored at −20° C. until analysis. The PM dose was then administered as scheduled. The AM dose was administered as scheduled on the days of surgery. Approximately 6 hr after the AM dose, a final 3 ml blood sample was taken from the jugular vein for determination of plasma compound levels. The dog was then anesthetized with pentobarbital Na (˜40 mg/kg), given iv in a cephalic or saphenous vein, and delivered to the necropsy room where an additional dose of pentobarbital Na was given (˜80 mg/kg, iv). The left ventricle, renal artery, kidney, renal medulla, renal cortex and cerebral cortex were then rapidly harvested, weighed, put into 2 ml iced 0.4M perchloric acid, frozen in liquid nitrogen and stored at −70° C. until analysis for catecholamines by HPLC using electrochemical detection. All tissue samples were divided into 2 portions, the second of which were immediately frozen in liquid nitrogen and stored at −70° C. for determination of tissue compound levels. A third transmural sample taken from the left ventricle was immediately frozen in liquid nitrogen and stored at −70° C. for use in receptor binding studies. […]

[3] = 60 mg/kg/day, marginal (0.05<p<0.10)

Fc1cc(F)cc(Cn2cc[nH]c2=S)c1 [SKF 102698, reference compound]
acoustic startle reactivity vs vehicle [1]: significantly lower startle response compared to cyclodextrin | acoustic startle reactivity vs vehicle ([1]; listed as SKF102698): significantly reduced

Cl.NCc1c[nH]c(=S)n1[C@H]1CCc2c(F)cc(F)cc2C1 [nepicastat, (S)-5-Aminomethyl-1-(5,7-difluoro-1,2,3,4-tetrahydronaphth-2-yl)-2,3-dihydro-2-thioxo-1H-imidazole hydrochloride]
decrease in pressure (blood pressure): −13 mmHg | decrease in norepinephrine, left ventricle ([2]; 10 mg/kg/day): 85% | decrease in norepinephrine, renal artery ([2]; 10 mg/kg/day): 86% | decrease in norepinephrine, renal cortex ([2]; 10 mg/kg/day): 86% | decrease in norepinephrine, renal medulla ([2]; 10 mg/kg/day): 72% | increase in dopamine, cerebral cortex ([2]; 10 mg/kg/day): 632% | increase in dopamine, renal artery ([2]; 10 mg/kg/day): 180% | increase in dopamine, renal cortex ([2]; 10 mg/kg/day): 156% | increase in dopamine/norepinephrine ratio, cerebral cortex ([2]; 10 mg/kg/day): 531% | increase in dopamine/norepinephrine ratio, left ventricle ([2]; 10 mg/kg/day): 852% | increase in dopamine/norepinephrine ratio, renal artery ([2]; 10 mg/kg/day): 1711% | increase in dopamine/norepinephrine ratio, renal cortex ([2]; 10 mg/kg/day): 1653% | increase in dopamine/norepinephrine ratio, renal medulla ([2]; 10 mg/kg/day): 555% | increase in dopamine, renal medulla ([2]; 10 mg/kg/day, marginal (0.05<p<0.10)): 150% | decrease in norepinephrine, left ventricle ([2]; 30 mg/kg/day): 58% | decrease in norepinephrine, renal artery ([2]; 30 mg/kg/day): 81% | decrease in norepinephrine, renal cortex ([2]; 30 mg/kg/day): 66% | increase in dopamine, renal artery ([2]; 30 mg/kg/day): 273% | increase in dopamine, renal cortex ([2]; 30 mg/kg/day): 502% | increase in dopamine, renal medulla ([2]; 30 mg/kg/day): 522% | increase in dopamine/norepinephrine ratio, cerebral cortex ([2]; 30 mg/kg/day): 86% | increase in dopamine/norepinephrine ratio, left ventricle ([2]; 30 mg/kg/day): 279% | increase in dopamine/norepinephrine ratio, renal artery ([2]; 30 mg/kg/day): 1767% | increase in dopamine/norepinephrine ratio, renal cortex ([2]; 30 mg/kg/day): 1440% | increase in dopamine/norepinephrine ratio, renal medulla ([2]; 30 mg/kg/day): 636% | reduction in norepinephrine, cerebral cortex ([2]; 30 mg/kg/day): 63% | increase in dopamine, cerebral cortex ([2]; 30 mg/kg/day, marginal (0.05<p<0.10)): 174% | decrease in norepinephrine, left ventricle ([2]; 60 mg/kg/day): 79% | decrease in norepinephrine, renal artery ([2]; 60 mg/kg/day): 85% | decrease in norepinephrine, renal cortex ([2]; 60 mg/kg/day): 85% | increase in dopamine, cerebral cortex ([2]; 60 mg/kg/day): 411% | increase in dopamine, renal artery ([2]; 60 mg/kg/day): 268% | increase in dopamine, renal cortex ([2]; 60 mg/kg/day): 208% | increase in dopamine/norepinephrine ratio, cerebral cortex ([2]; 60 mg/kg/day): 612% | increase in dopamine/norepinephrine ratio, left ventricle ([2]; 60 mg/kg/day): 607% | increase in dopamine/norepinephrine ratio, renal artery ([2]; 60 mg/kg/day): 1944% | increase in dopamine/norepinephrine ratio, renal cortex ([2]; 60 mg/kg/day): 1693% | increase in dopamine/norepinephrine ratio, renal medulla ([2]; 60 mg/kg/day): 677% | decrease in norepinephrine, renal medulla [2, 3]: 69% | increase in dopamine, renal medulla [2, 3]: 156% | dopamine levels, left ventricle ([2]; 10, 30 and 60 mg/kg/day): No significant changes | norepinephrine levels, cerebral cortex ([2]; 10 and 60 mg/kg/day): not significantly (p>0.01) affected

From US20090054403A1, “Treatment of Post-Traumatic Stress Disorder” (priority 2007, published 2009)
